Experimental data as given in patent publication US20240108753A1, “NUCLEIC ACID DELIVERY” (NUNTIUS THERAPEUTICS LIMITED, priority 2021, published 2024).

Legend:
[1] = Hydrodynamic size, polydispersity index and zeta potential of dendrimer, lipid and mRNA complexes; format: physicochemical; settings: DOTMA/DOPE w/w 10:1 to mRNA; for Hydrodynamic size: dendrimer, lipid and mRNA complexes
Description: The hydrodynamic size, polydispersity index and Zeta potential was determined for a set of the dendrimers disclosed in Tables 1 and 2.

HeLa cells = assay: mRNA (eGFP) transfection with peptide dendrimers and DOTMA/DOPE in full growth medium; format: cell-based, human; settings: HeLa; full growth medium; DOTMA/DOPE w/w 10:1 to mRNA; relative to G1,2-RL, 3-LR
Description: FIG. 28. mRNA transfection of the peptide dendrimers with lipid system in vitro. […] The mRNA used expressed an eGFP reporter gene. Following a 24 hour transfection, the cells were harvested to assay the eGFP expression. The eGFP expression was normalised with the total amount of protein of each transfection. The gene expression level was calculated by normalising the transfection value of the G1,2-RL, 3-LR, DOTMA/DOPE & mRNA treated cells. 1st, 2nd and 3rd generation dendrimers with varying cores and 1st, 2nd, and 3rd generation peptide motifs can transfect cells with mRNA effectively under the tested conditions.
FIG. 29. mRNA transfection of the peptide dendrimers with lipid system in vitro. HeLa cells were transfected with mRNA alone or mRNA with peptide dendrimers and DOTMA/DOPE (w/w=10:1 to mRNA). The N:P ratio of G1,2-RL,3-LR was at 0.16:1 while the N:P ratios of all other dendrimers at 8:1. The mRNA used expressed an eGFP reporter gene. Following a 24 hour transfection, the cells were harvested to assay the eGFP expression. The eGFP expression was normalised with the total amount of protein of each transfection. The gene expression level was calculated by normalising the transfection value of the G1,2-RL, 3-LR, DOTMA/DOPE & mRNA treated cells. 1st, 2nd and 3rd generation dendrimers with varying cores and 1st, 2nd, and 3rd generation peptide motifs can transfect cells with mRNA effectively under the tested conditions.
The effect on the number of generations of dendrimers on mRNA delivery was studied by transfecting HeLa cells in full growth medium conditions.

Row | Substance | Polydispersity Index (PDI) ([1]; N:P 0.16:1) | Zeta Potential ([1]; N:P 0.16:1) [mV] | Polydispersity Index (PDI) ([1]; N:P 8:1) | Zeta Potential ([1]; N:P 8:1) [mV] | Hydrodynamic size ([1]; N:P 0.16:1) [nm] | Hydrodynamic size ([1]; N:P 8:1) [nm] | mRNA transfection efficiency (eGFP), in words (HeLa cells)
1 | (BR)8(KRB)4(KRX)2KGSC-NH2 [G1-RX, 2-RB, 3-BR] | 0.108 | 41 | 0.403 | 56 | 130 | 70 | –
2 | (FR)8(KRQ)4(KRW)2KGSC-NH2 [G1-RW, 2-RQ, 3-FR] | 0.146 | 37 | 0.452 | 51 | 133 | 105 | –
3 | (HK)8(KKH)4(KKL)2KGSC-NH2 [G1-KL, 2-KH, 3-HK] | 0.237 | 35 | 0.126 | 49 | 131 | 103 | –
4 | (LR)8(KR)4(KRLR)2KRHC-NH2 [RHCG1-RLR, 2-R, 3-LR] | 0.136 | 41 | 0.439 | 59 | 121 | 75 | –
5 | (LR)8(KRL)4(KRL)2KA-NH2 [KAG1,2-RL, 3-LR] | 0.136 | 47 | 0.184 | 51 | 125 | 76 | –
6 | (LR)8(KRL)4(KRL)2KRHC-NH2 [RHCG1,2-RL,3-LR] | 0.11 | 44 | 0.363 | 50 | 134 | 58 | –
7 | (LR)8(KRL)4(KRL)2KRYM-NH2 [RYMG1,2-RL, 3-LR] | 0.137 | 43 | 0.257 | 56 | 133 | 68 | –
8 | (LR)8(KRL)4(KRL)2KYM-NH2 [YMG1,2-RL, 3-LR] | 0.116 | 35 | 0.213 | 56 | 117 | 73 | –
9 | (LRLR)2KGSC-NH2 [G1-LRLR] | 0.264 | 40 | 0.581 | 49 | 122 | 250 | –
10 | (LRLR)8(KLRLR)4(KLRLR)2KGSC-NH2 [G1,2,3-LRLR] | 0.133 | 45 | 0.287 | 50 | 130 | 80 | –
11 | (R)8(KR)4(KR)2KRHC-NH2 [RHCG1,2,3-R] | 0.173 | 43 | 0.396 | 62 | 125 | 70 | –
12 | (R)8(KRL)4(KRLR)2KRHC-NH2 [RHCG1-RLR, 2-RL, 3-R] | 0.219 | 36 | 0.429 | 59 | 119 | 83 | –
13 | (RLR)2KRHC-NH2 [RHCG1-RLR] | 0.363 | 41 | 0.766 | – | 105 | 183 | –
14 | (RLR)8(KRLR)4(KRLR)2KRHC-NH2 [RHCG1,2,3-RLR] | 0.154 | 42 | 0.299 | 56 | 130 | 73 | –
15 | (WR)8(KRM)4(KRF)2KGSC-NH2 [G1-RF, 2-RM, 3-WR] | 0.125 | 41 | 0.277 | 51 | 142 | 80 | –
16 | (YR)8(KRT)4(KRQ)2KGSC-NH2 [G1-RQ, 2-RT, 3-YR] | 0.135 | 41 | 0.409 | 54 | 130 | 100 | –
17 | (lR)8(KrL)4(kRl)2KGSC-NH2 [G1-Rl, 2-rL, 3-lR] | 0.22 | 42 | 0.241 | 56 | 135 | 74 | –
18 | (lr)8(Krl)4(Krl)2Kgsc-NH2 [LK-G1,2-rl, 3-lr] | 0.16 | 45 | 0.251 | 53 | 132 | 74 | –
19 | (lr)8(krl)4(krl)2kgsc-NH2 [D-G1,2-rl, 3-lr] | 0.148 | 43 | 0.246 | 53 | 134 | 73 | –

Further lines, with some results ahead:

Row | Polydispersity Index (PDI) ([1]; N:P 0.16:1) | Zeta Potential ([1]; N:P 0.16:1) [mV] | Polydispersity Index (PDI) ([1]; N:P 8:1) | Zeta Potential ([1]; N:P 8:1) [mV] | Hydrodynamic size ([1]; N:P 0.16:1) [nm] | Hydrodynamic size ([1]; N:P 8:1) [nm] | Substance | mRNA transfection efficiency (eGFP), in words (HeLa cells)
20 | 0.107 | 40 | 0.577 | 35 | 129 | 326 | (LR)2KRHC-NH2 [RHCG1-LR] | can transfect cells effectively
21 | 0.117 | 34 | 0.286 | 57 | 124 | 78 | (LR)8(DabRL)4(DabRL)2DabGSC-NH2 [DabG1,2-RL, 3-LR] | –
22 | 0.131 | 43 | 0.37 | 56 | 135 | 78 | (LR)8(KR)4(KRLRL)2KRHC-NH2 [RHCG1-RLRL, 2-R, 3-LR] | –
23 | 0.096 | 45 | 0.158 | 53 | 134 | 96 | (LR)8(KRL)4(KRE)2KGSC-NH2 [G1-RE, 2-RL, 3-LR] | –
24 | 0.143 | 42 | 0.289 | 54 | 118 | 62 | (LR)8(KRL)4(KRL)2KGSCRHCRFWRYM-NH2 [LinearG1,2-RL, 3-LR] | transfection efficiency was not affected
25 | 0.152 | 39 | 0.401 | 55 | 120 | 91 | (LR)8(KRL)4(KRL)2KRFW-NH2 [RFWG1,2-RL, 3-LR] | –
26 | 0.181 | 41 | 0.189 | 53 | 130 | 92 | (LRLR)4(KLRLR)2KGSC-NH2 [G1,2-LRLR] | –
27 | 0.148 | 43 | 0.19 | 56 | 121 | 87 | (MR)8(KRC)4(KRC)2KGSC-NH2 [G1-RC, 2-RC, 3-MR] | –
28 | 0.16 | 42 | 0.178 | 52 | 126 | 95 | (QR)8(KRT)4(KRY)2KGSC-NH2 [G1-RY, 2-RT, 3-QR] | –
29 | 0.144 | 32 | 0.242 | 54 | 137 | 89 | (RL)8(KLR)4(KLR)2KGSC-NH2 [G1,2-LR,3-RL] | –
30 | 0.136 | 41 | 0.417 | 53 | 132 | 80 | (RL)8(KRL)4(KLR)2KGSC-NH2 [G1-LR,2,3-RL] | –
31 | 0.154 | 39 | 0.214 | – | 116 | 83 | (RLR)4(KRLR)2KRHC-NH2 [RHCG1,2-RLR] | –
